Data: US20260042773A1, “NOVEL CAMPTOTHECIN ANALOGS AND IMMUNOCONJUGATES THEREOF” (priority 2022, published 2026)
pIC50: −log10 of the molar value.

How the values were obtained:
SU-DHL-1 cells = assay: Cell viability (Cell Titer Glo 2.0) in SU-DHL-1 cells; assay type: cell-based; details: Homo sapiens, 120 hours at 37° C., Cell Titer Glo 2.0, normalized to non-treated controls
Procedure: (§1) SU-DHL-1 and SK-BR-3 cells (ATCC, Manassas, VA, USA) were seeded into 384-well white-walled culture plates and allowed to adhere for 2-4 hours. Cells were then treated at least in duplicate by addition of 5-fold serially diluted test articles prepared at 2× final concentration and incubated at 37° C. for 120 hours. Cell viability following treatment was determined by Cell Titer Glo 2.0 Assay (Promega, Madison, WI, USA) and normalized to non-treated controls. Dose-response relationships were analyzed using GraphPad Prism (La Jolla, C A, USA), and IC50 values were derived from non-linear regression analyses using a 4-parameter logistic equation.

SK-BR-3 cells = assay: Cell viability (Cell Titer Glo 2.0) in SK-BR-3 cells; assay type: cell-based; details: Homo sapiens, 120 hours at 37° C., Cell Titer Glo 2.0, normalized to non-treated controls
Procedure: as §1

| Structure (SMILES) | pIC50 (SU-DHL-1 cells) | pIC50 (SK-BR-3 cells) |
| --- | --- | --- |
| CC[C@@]1(O)C(=O)OCc2c1cc1n(c2=O)Cc2c-1nc1ccc(N)cc1c2CN1CCOCC1 [Compound 1] | > 8.30 | 7.70 to 8.30 |
| CC[C@@]1(O)C(=O)OCc2c1cc1n(c2=O)Cc2c-1nc1ccc(N)cc1c2CN1CCN(C)CC1 [Compound 2] | 7.70 to 8.30 | < 7.70 |
| CC[C@@]1(O)C(=O)OCc2c1cc1n(c2=O)Cc2c-1nc1ccc(N)cc1c2CN1CCS(=O)(=O)CC1 [Compound 3] | < 7.70 | < 7.70 |
| CC[C@@]1(O)C(=O)OCc2c1cc1n(c2=O)Cc2c-1nc1ccc(N)cc1c2COC [Compound 4] | > 8.30 | > 8.30 |
| CC[C@@]1(O)C(=O)OCc2c1cc1n(c2=O)Cc2c-1nc1ccc(N)cc1c2N1CCOCC1 [Compound 5] | > 8.30 | > 8.30 |
| CC[C@@]1(O)C(=O)OCc2c1cc1n(c2=O)Cc2c-1nc1ccc(N)cc1c2N1CCCC1 [Compound 6] | 7.70 to 8.30 | 7.70 to 8.30 |
| CC[C@@]1(O)C(=O)OCc2c1cc1n(c2=O)Cc2c-1nc1ccc(N)cc1c2N1CC2(COC2)C1 [Compound 7] | 7.70 to 8.30 | 7.70 to 8.30 |
| CC[C@@]1(O)C(=O)OCc2c1cc1n(c2=O)Cc2c-1nc1ccc(N)cc1c2N1CCC1 [Compound 8] | 7.70 to 8.30 | 7.70 to 8.30 |
| CC[C@@]1(O)C(=O)OCc2c1cc1n(c2=O)Cc2c-1nc1ccc(N)cc1c2N1CC2(CCOCC2)C1 [Compound 9] | > 8.30 | 7.70 to 8.30 |
| CC[C@@]1(O)C(=O)OCc2c1cc1n(c2=O)Cc2c-1nc1ccc(N)cc1c2CO [Compound 10] | 7.70 to 8.30 | 7.70 to 8.30 |
| CC[C@@]1(O)C(=O)OCc2c1cc1n(c2=O)Cc2c-1nc1ccc(N)cc1c2N1CC2(CCOC2)C1 [Compound 11] | > 8.30 | > 8.30 |
| CC[C@@]1(O)C(=O)OCc2c1cc1n(c2=O)Cc2c-1nc1ccc(N)cc1c2N1CCCCC1 [Compound 12] | > 8.30 | > 8.30 |
| CC[C@@]1(O)C(=O)OCc2c1cc1n(c2=O)Cc2c-1nc1ccc(N)cc1c2N(C)C [Compound 14] | 7.70 to 8.30 | 7.70 to 8.30 |
| CC[C@@]1(O)C(=O)OCc2c1cc1n(c2=O)Cc2c-1nc1ccc(N)cc1c2N1CCN(S(C)(=O)=O)CC1 [Compound 15] | 7.70 to 8.30 | < 7.70 |
| CC[C@@]1(O)C(=O)OCc2c1cc1n(c2=O)Cc2c-1nc1ccc(N)cc1c2N(C)CCOC [Compound 16] | > 8.30 | 7.70 to 8.30 |
| CC[C@@]1(O)C(=O)OCc2c1cc1n(c2=O)Cc2c-1nc1ccc(N)cc1c2N(C)CCN(C)C [Compound 17] | < 7.70 | < 7.70 |
| CC[C@@]1(O)C(=O)OCc2c1cc1n(c2=O)Cc2c-1nc1ccc(N)cc1c2N1C[C@H]2CC[C@@H](C1)O2 [Compound 18] | > 8.30 | > 8.30 |
| CC[C@@]1(O)C(=O)OCc2c1cc1n(c2=O)Cc2c-1nc1ccc(N)cc1c2NC [Compound 19] | < 7.70 | 7.70 to 8.30 |
| CC[C@@]1(O)C(=O)OCc2c1cc1n(c2=O)Cc2c-1nc1ccc(N)cc1c2N(C)CCO [Compound 20] | < 7.70 | < 7.70 |
| CC[C@@]1(O)C(=O)OCc2c1cc1n(c2=O)Cc2c-1nc1ccc(N)cc1c2N [Compound 21] | < 7.70 | 7.70 to 8.30 |
| CC[C@@]1(O)C(=O)OCc2c1cc1n(c2=O)Cc2c-1nc1ccc(N)cc1c2N1CCSCC1 [Compound 23] | > 8.30 | > 8.30 |
